Test results taken from patent publication US9266829B2, “Quinone compounds and their uses for the treatment of cancer” (Onco-NX Limited, priority 2012, dated 2016).
Values after ≈ are worked out from the molar mass of the structure shown.

Experiments:
MDA468 = test: IC50 by MTT assay on MDA468 cells; type: cell-based, human
porcine brain extracts = test: Cleavage by porcine brain extracts; type: in vitro ADME; details: in words; result of porcine esterase repeated
Excerpt: The cleavage of Es5 by esterase and cell extracts and its activation were investigated.

[1] = test system: DT-diaphorase expressing cells; test: Apoptosis by Annexin V binding, DT-diaphorase expressing cells; type: cell-based, human
Experimental: Based on the method described in Martin et al. (Journal of Experimental Medicine. 182, 1545-1556. 1995), the induction of apoptosis caused by the compounds of the present invention was determined.

[2] = test system: DT-diaphorase null MDA468; test: DNA damage, Comet assay, DT-diaphorase null MDA468 cells; type: cell-based, human
Experimental: DNA damage was measured using the Comet assay to investigate the effect of Es5 on the comet head and tail intensities following treatment of MDA468NQ01 and the DT-diaphorase null MDA468 cell lines. […] Without wishing to be bound by any particular theory, the inventors believe that this must arise by a different mechanism such as 2×one electron reductions, rather than the 2 electron reduction that occurs with DT-diaphorase.

MDA-MB-468-NQ01 = test: In vivo hollow fibre assay, MDA-MB-468-NQ01; set-up: species or system mice
Experimental: The activity of Es5 (4.65) was evaluated in vivo against 3 cancer cell lines H460, MDA-MB-468-NQ01 and MDA-MB-468-MOCK using the in vivo hollow fibre assay (HFA), with fibres implanted at both intraperitoneal (i.p.) and subcutaneous (s.c.) sites. Es5 and the control agent Doxorubicin were administered as multiple doses by intraperitoneal injection (i.p.) on days 3, 4, 5 & 6 at 0.5 mg/kg/day and 2.5 mg/kg/day respectively.
Three human tumour cell lines were selected for analysis: H460 NSCLC (from ICT) and two breast carcinoma lines MDA-MB-468-NQ01 and MDA-MB-468-MOCK (both supplied by Onco-NX). Cells were cultured in RPMI 1640 cell culture medium supplemented with 1 mM sodium pyruvate, 2 mM L-glutamine and 10% foetal bovine serum (all from Sigma), and maintained as monolayer cultures at 37° C. in a humidified 5% CO2 environment.
Female Balb/C immunodeficient nude mice aged 6-8 weeks were used (Harlan UK, Blackthorn, UK). Mice were kept in cages housed in isolation cabinets in an air-conditioned room with regular alternating cycles of light and darkness. They received Teklad 2018 diet (Harlan, Blackthorn, UK) and water ad libitum. All animal procedures were carried out under a project licence issued by the UK Home Office and UKCCCR guidelines were followed throughout.
Cells were loaded into sterilised colour-coded PVDF Spectra/Por hollow fibres (HF) (Spectrum Medical Inc, Houston, Tex., USA). Briefly cells were harvested and resuspended in cell culture medium at the required cell density. This preparation was then loaded into the HF and the ends were clamped and heat-sealed. The HF was then cut into 1.5 cm lengths which were again heat-sealed at both ends, and then transferred to 6-well plates containing medium before implantation for the in vivo experiments, or were incubated at 37° C. in a humidified 5% CO2 environment for varying times before processing using the modified MTT assay as described below.
For the in vivo experiments, under brief inhalation anaesthesia (2% isoflurane), one loaded hollow fibre for each of the cell lines was transplanted intraperitoneally or subcutaneously on the dorsal flank of each mouse and the mice were allowed to recover. Each group consisted of 6 mice and the implantation day was termed ‘day 0’.
For assessment of the therapeutic response of Es5 (4.65), on days 3, 4, 5 & 6 mice were treated with Es5 (4.65) at 0.5 mg/kg/day or Doxorubicin at 2.5 mg/kg/day.
Mice were sacrificed on day 7 post-implantation, fibres removed, and cell survival analysed using a modified MTT assay, comparing absorbances seen for the treated groups with the corresponding untreated control group. Statistical analysis was carried out using a Student's t-test.

physchem [3] = test: physchem
physchem [4] = test: physchem; remark: listed apart in the source

CC(=O)OCCCC1=C(N2CC2)C(=O)C(C)=C(N2CC2)C1=O [Es5, Acetic Acid 3-(2,5-bis-aziridin-1-yl-4-methyl-3,6-dioxo-cyclohexa-1,4-dienyl)-propyl ester]
IC50 (MDA468; Homo sapiens): 25 nM
IC50 (MDA468; listed as Es5 (4.65)): 20 to 25 nM
cleavage by porcine brain extracts (porcine brain extracts): rapidly cleaved
time to induction of programmed cell death (Annexin V binding) [1]: ≤ 2 h
Comet assay tail intensity (DNA cross-linking) ([2]; DT-diaphorase deficient cell line, compared to H2O2 alone): did not reduce tail intensity
Comet assay, DNA cross-linking after 6 hours of incubation ([2]; DT-diaphorase null cell line, 6 hours): evidence of cross-linking
cell survival compared to the untreated control, MDA-MB-468-NQ01, i.p. site (MDA-MB-468-NQ01; fibres at i.p. site, i.p. dosing days 3-6, nude mice, p<0.01): significant efficacy
efficacy in the NQ01-expressing compared to the Mock MDA-MB-468 cell line (MDA-MB-468-NQ01; hollow fibre assay): improved efficacy
solubility (physchem [3]; aqueous buffer): 150 µg/mL (≈ 0.493 mM)
solubility (physchem [3]; organic solvent or mixture): 9400 µg/mL (≈ 30.9 mM)
half-life (physchem [4]): < 24 h
